Test results taken from patent publication US20090280196A1, “CISSUS […] PLANT EXTRACTS FOR TREATING OSTEOPOROSIS AND THE EXTRACTION PROCESS THEREOF” (priority 2006, published 2009).

What was measured:
[1] = test system: osteoclasts (osteoclastic bone resorption); assay: Bone resorption hit screening, CTX release from osteoclasts on bovine bone slices; assay type: cell-based, human; settings: positive control, V-ATPase blocker, concentration not given
Source text: Studies have determined that osteoclasts are largely derived from CD14 positive monocytes (J. Haemotol, 1999 July; 106(1):167-70). Clonal analysis of haematopoietic cells by surface phenotypes has been used to further identify osteoclast precursor by characterizing osteoclast like cells distinct from other haematopoietic progenitors (Lee et. al; 1992b Muguruma & Lee; 1988). Surface phenotype analysis has shown that human osteoclasts are derived from CD14 monocytes (Massey & Flanagan, 1999). CD 14 marker is strongly expressed on monocytes, the putative osteoclast precursor in peripheral blood and CD14 positive monocytes have been selected for osteoclastogenesis. (Clin. Sci (Lond) 2000, August, 99(2): 133-40).
The osteoclasts were isolated as CD14 positive monocytes and differentiated into osteoclasts for 10-12 days. Hereafter, the osteoclasts were lifted by trypsin, counted and seeded on bovine bone slices at a density of 40000 cells per bone slice. The osteoclasts were seeded on the bone slices for one day before the plant extracts were added. The osteoclasts were hereby allowed to attach and initiate resorption. […]
The bone resorption experiment was ended after 5 days of incubation and the cell viability was measured by the use of the AlamarBlue assay. Bone resorption was evaluated as the determination of the CTX release.

[2] = cited from earlier work

Structure (SMILES)	inhibition of osteoclastic bone resorption compared to DMSO [1]	increase of bone mineral density in the spine ([2]; in 18 months, once daily subcutaneous injection)	reduction of the risk of fracture ([2]; patients)
CO/C1=C\C(C)=C\[C@@H](C)[C@@H](O)[C@@H](C)C/C(C)=C/C=C/[C@H](OC)[C@@H]([C@@H](C)[C@@H](O)[C@H](C)[C@@]2(O)C[C@@H](O)[C@H](C)[C@@H](C(C)C)O2)OC1=O [Bafilomycin]	approximately 80%		
CC[C@H](C)[C@H](NC(=O)[C@H](CCC(=O)O)NC(=O)[C@H](CO)NC(=O)[C@@H](NC(=O)[C@@H](N)CO)C(C)C)C(=O)N[C@@H](CCC(N)=O)C(=O)N[C@@H](CC(C)C)C(=O)N[C@@H](CCSC)C(=O)N[C@@H](Cc1cnc[nH]1)C(=O)N[C@@H](CC(N)=O)C(=O)N[C@@H](CC(C)C)C(=O)NCC(=O)N[C@@H](CCCCN)C(=O)N[C@@H](Cc1cnc[nH]1)C(=O)N[C@@H](CC(C)C)C(=O)N[C@@H](CC(N)=O)C(=O)N[C@@H](CO)C(=O)N[C@@H](CCSC)C(=O)N[C@@H](CCC(=O)O)C(=O)N[C@@H](CCCN=C(N)N)C(=O)N[C@H](C(=O)N[C@@H](CCC(=O)O)C(=O)N[C@@H](Cc1c[nH]c2ccccc12)C(=O)N[C@@H](CC(C)C)C(=O)N[C@@H](CCCN=C(N)N)C(=O)N[C@@H](CCCCN)C(=O)N[C@@H](CCCCN)C(=O)N[C@@H](CC(C)C)C(=O)N[C@@H](CCC(N)=O)C(=O)N[C@@H](CC(=O)O)C(=O)N[C@H](C(=O)N[C@@H](Cc1cnc[nH]1)C(=O)N[C@@H](CC(N)=O)C(=O)N[C@@H](Cc1ccccc1)C(=O)O)C(C)C)C(C)C [teriparatide]		≤ 13%	≤ 90%
